From patent US20160030443A1, “METHODS AND COMPOSITIONS FOR MODULATING REGULATORY T CELL FUNCTION” (priority 2013, published 2016)

test system: human Treg cells; test: Functional screening assay: naïve CD4+ T cell proliferation ([3H]thymidine) with Treg cells and small molecule compounds; format: cell-based; conditions: compound 1 μM; [3H]thymidine incorporation; marked effect = CPM>60K, 50% restoration
Experimental: These small molecule compounds contain a quinolone structure. Those with a marked effect on the proliferation of CD4^+ naïve T cells (CPM>60K, 50% restoration compared to naïve T cells alone) are considered excellent candidates for further drug development. Naïve T cells alone or CD4^+ naïve cells plus Treg cells, without any compound serve as controls. […]
Specifically, a functional screening assay was carried out using soluable anti-CD3 antibody plus antigen-presenting cells (APCs). Naïve CD4^+T cells were purified from PBMCs using microbeads (Miltenvi Biotec). DCs were generated from PBMC-derived monocytes in the presence of IL-4 (500 ng/ml) and GM-CSF (800 ng/ml) for 7 days. 1×10^5 naïve CD4^+ T cells were cultured with regulatory T cells at different ratios of 1:0.2, 1:0.1 and 1:0.05 in 200 μl of medium containing 2×10^4 of DCs and anti-CD3 antibody (100 ng/ml) in the absence or presence of various small molecule compounds (1 μM). □ After 56 hours of culture, [^3H]thymidine was added at a final concentration of 1 μCi/well, followed by an additional 16 h. of culture. The incorporation of [^3H]thymidine was measured with a liquid scintillation counter. All experiments were performed in triplicate. In addition, a screening assay was performed usinge anti-CD3 antibody coated without APCs: 1×10^5 naïve CD4 T cells were cultured with regulatory T cells at different ratios of 1:0.2, 1:0.1 and 1:0.05 in anti-CD3 mAb-coated (2 μg/ml) 96-well plates in the absence or presence of various small molecule compounds (1 μM) □. After 56 h of culture, [^3H]thymidine was added at a final concentration of 1 μCi/well, followed by an additional 16 h of culture. The incorporation of [^3H]thymidine was measured with a liquid scintillation counter.

| SMILES | Reversal of the suppressive function of Treg cells (restoration of naïve CD4+ T cell proliferation) |
| --- | --- |
| CCCCCn1cc(C(=O)O)c(=O)c2cc(F)c(F)cc21 [#8, 6,7-difluoro-4-oxo-1-pentylquinoline-3-carboxylic acid] | ST008097 #8 No activity |
| CCn1cc(C(=O)O)c(=O)c2cc(F)c(Cl)cc21 [#19, 7-Chloro-1-ethyl-6-fluoro-4-oxo-1,4-dihydro-3-quinolinecarboxylic acid] | TRE0007211 #19 No activity |
| CCOC(=O)c1cn(-c2ccc(F)cc2F)c2nc(Cl)c(F)cc2c1=O [#14, ethyl 7-chloro-1-(2,4-difluorophenyl)-6-fluoro-4-oxo-1,8-naphthyridine-3-carboxylate] | ST067113 #14 No activity |
| CCOC(=O)c1cn(CC)c2c(F)c(F)c(F)cc2c1=O [#27, Ethyl 1-ethyl-6,7,8-trifluoro-1,4-dihydro-4-oxo-3-quinolinecarboxylate] | TRE0080754 #27 No activity |
| CC1COc2c(F)c(F)cc3c(=O)c(C(=O)O)cn1c23 (stereo not shown) [#20, 9,10-Difluoro-3-methyl-7-oxo-2,3-dihydro-7H-[1,4]oxazino[2,3,4-ij]quinoline-6-carboxylic acid] | TRE0008195 #20 No activity |
| O=C(O)c1coc2ccc(F)cc2c1=O [#28, 6-Fluoro-4-oxo-4H-chromene-3-carboxylic acid] | TRE0080974 #28 No activity |
| CC1CCc2cc(F)cc3c(=O)c(C(=O)O)cn1c23 (stereo not shown) [#21, 9-Fluoro-5-methyl-1-oxo-6,7-dihydro-1H,5H-pyrido[3,2,1-ij]quinoline-2-carboxylic acid, reference compound] | TRE0065224 #21 No activity |
| CCn1cc(C(=O)O)c(=O)c2cc(F)c(NN3C(=O)CSC3c3ccccc3Cl)cc21 (stereo not shown) [#11, {[2-(2-chlorophenyl)-4-oxo(1,3-thiazolidin-3-yl)]amino}-1-ethyl-6-fluoro-4-o xohydroquinoline-3-carboxylic acid] | ST048777 #11 No activity |
| CCn1cc(C(=O)O)c(=O)c2cc(F)c(NN3C(=O)C(Cl)C3c3ccc(OC)cc3)cc21 (stereo not shown) [#12, 7-{[3-Chloro-2-(4-methoxyphenyl)-4-oxo-1-azetidinyl]amino}-1-ethyl-6-fluoro-4-oxo-1,4-dihydro-3-quinolinecarboxylic acid] | ST026709 #12 No activity |
| CCn1cc(C(=O)O)c(=O)c2cc(F)c(NN3C(=O)/C(=C\c4ccccc4)N=C3c3ccccc3)cc21 [#9, F[…] 5- MALEIMIDE] | ST023837 #9 No activity |
| Fc1ccccc1N1CCNCC1 [#17, 1-(2-Fluorophenyl)piperazine] | TRE0005772 #17 No activity |
| O=C(O)c1c[nH]c2ccccc2c1=O [#10, 4-oxo-1H-quinoline-3-carboxylic acid] | ST020639 #10 No activity |
| Fc1ccc(N2CCNCC2)c(F)c1 [#16, 1-(2,4-Difluorophenyl)piperazine] | TRE0005495 #16 No activity |
| Fc1ccccc1N1CCNCC1 [#15, 1-(2-Fluorophenyl)piperazine] | TRE0004030 #15 No activity |
| CCN1CCN(c2cc3c(cc2F)c(=O)c(C(=O)O)cn3C2CC2)CC1 [#26, 1-Cyclopropyl-7-(4-ethyl-1-piperazinyl)-6-fluoro-4-oxo-1,4-dihydro-3-quinolinecarboxylic acid, reference compound] | TRE0076990 #26 No activity |
| CCOC(=O)c1c[nH]c2c(F)c(F)c(F)cc2c1=O [#18, Ethyl 6,7,8-trifluoro-1,4-dihydro-4-oxo-3-quinilinecarboxylate] | TRE0006666 #18 No activity |
